Laboratory results published in US10858335B2 (Rigel Pharmaceuticals, Inc., priority 2014, dated 2020).

tested on: GDF8 signaling (p-SMAD-3 (Ser423/425)); test: AlphaScreen SureFire SMAD3 (p-Ser423/425) assay, GDF8-stimulated cells (GDF pSMAD); assay type: cell-based; details: Mus musculus, MPC-11, MPC11; GDF8-stimulated; p-SMAD3 AlphaScreen; read-out: GDF pSMAD (MPC11) (inhibition of GDF8 signaling)

SMILES	IC50
Fc1ccc(-c2ncccc2-c2ccc3ncncc3c2)cc1Cl [compound 506, 6-(2-(3-Chloro-4-fluorophenyl)pyridin-3-yl)quinazoline]	1.83 µM
Fc1ccc(-c2ncccc2-c2ccc3ncnc(C4CC4)c3c2)cc1Cl [compound 507, 6-(2-(3-Chloro-4-fluorophenyl)pyridin-3-yl)-4-cyclopropylquinazoline]	3.37 µM
Cc1cc(-c2ncc(NCc3ccncc3)cc2-c2ccc3ncsc3c2)ccc1F [compound 509, 5-(Benzo[d]thiazol-6-yl)-6-(4-fluoro-3-methylphenyl)-N-(pyridin-4-ylmethyl)pyridin-3-amine]	0.265 µM
Cc1cccc(-c2cccnc2-c2ccc3[nH]ncc3c2)n1 [compound 517, 5-(6-Methyl-[2,3′-bipyridin]-2′-yl)-1H-indazole]	1.17 µM
Cc1cccc(-c2cccnc2-c2ccc3nc[nH]c3c2)n1 [compound 521, 6-(6-Methyl-[2,3′-bipyridin]-2′-yl)-1H-benzo[d]imidazole]	8.06 µM
Cc1cc(-c2ncccc2-c2ccc3ncc(C)n3c2)ccc1F [compound 527, 6-(2-(4-Fluoro-3-methylphenyl)pyridin-3-yl)-3-methylimidazo[1,2-a]pyridine]	0.137 µM
Cc1cccc(-c2ncccc2-c2ccc3ncc(C)n3c2)c1 [compound 528, 3-Methyl-6-(2-(m-Tolyl)pyridin-3-yl)imidazo[1,2-a]pyridine]	0.175 µM
Cc1cnc2ccc(-c3cccnc3-c3cccc(C4CC4)c3)cn12 [compound 529, 6-(2-(3-Cyclopropylphenyl)pyridin-3-yl)-3-methylimidazo[1,2-a]pyridine]	0.323 µM
Cc1cnc2ccc(-c3cccnc3-c3cccc(C(F)(F)F)c3)cn12 [compound 530, 3-Methyl-6-(2-(3-(trifluoromethyl)phenyl)pyridin-3-yl)imidazo[1,2-a]pyridine]	0.625 µM
Cc1cn2cc(-c3cccnc3-c3ccc(F)c(C)c3)ccc2n1 [compound 531, 6-(2-(4-Fluoro-3-methylphenyl)pyridin-3-yl)-2-methylimidazo[1,2-a]pyridine]	11.2 µM
Cc1cccc(-c2ncccc2-c2ccc3nc(C)cn3c2)c1 [compound 532, 2-Methyl-6-(2-(m-tolyl)pyridin-3-yl)imidazo[1,2-a]pyridine]	17.7 µM
Cc1cn2cc(-c3cccnc3-c3cccc(C4CC4)c3)ccc2n1 [compound 533, 6-(2-(3-Cyclopropylphenyl)pyridin-3-yl)-2-methylimidazo[1,2-a]pyridine]	6.12 µM
Cc1cn2cc(-c3cccnc3-c3cccc(C(F)(F)F)c3)ccc2n1 [compound 534]	18 µM
Cc1cc(-c2ncccc2-c2ccc3ncccc3n2)ccc1F [compound 535, 2-(2-(4-Fluoro-3-methylphenyl)pyridin-3-yl)-1,5-naphthyridine]	0.504 µM
Cc1cccc(-c2ncccc2-c2ccc3ncccc3n2)c1 [compound 536, 2-(2-(m-Tolyl)pyridin-3-yl)-1,5-naphthyridine]	0.404 µM
c1cc(-c2ncccc2-c2ccc3ncccc3n2)cc(C2CC2)c1 [compound 537, 2-(2-(3-Cyclopropylphenyl)pyridin-3-yl)-1,5-naphthyridine]	0.111 µM
FC(F)(F)c1cccc(-c2ncccc2-c2ccc3ncccc3n2)c1 [compound 538, 2-(2-(3-(Trifluoromethyl)phenyl)pyridin-3-yl)-1,5-naphthyridine]	0.474 µM
Cc1cc(-c2ncccc2-c2ccc3nccnc3c2)ccc1F [compound 539, 6-(2-(4-Fluoro-3-methylphenyl)pyridin-3-yl)quinoxaline]	0.699 µM
Cc1cccc(-c2ncccc2-c2ccc3nccnc3c2)c1 [compound 540, 6-(2-(m-Tolyl)pyridin-3-yl)quinoxaline]	0.426 µM
c1cc(-c2ncccc2-c2ccc3nccnc3c2)cc(C2CC2)c1 [compound 541, 6-(2-(3-Cyclopropylphenyl)pyridin-3-yl)quinoxaline]	0.25 µM
FC(F)(F)c1cccc(-c2ncccc2-c2ccc3nccnc3c2)c1 [compound 542, 6-(2-(3-(Trifluoromethyl)phenyl)pyridin-3-yl)quinoxaline]	1.72 µM
Cc1cccc(-c2ncccc2-c2ccc3nccc(N4CCOCC4)c3c2)c1 [compound 548, 4-(6-(2-(m-Tolyl)pyridin-3-yl)quinolin-4-yl)morpholine]	16.4 µM
c1cc(-c2ncccc2-c2ccc3nccc(N4CCOCC4)c3c2)cc(C2CC2)c1 [compound 549, 4-(6-(2-(3-Cyclopropylphenyl)pyridin-3-yl)quinolin-4-yl)morpholine]	5.01 µM

SMILES	IC50
Cc1cc(-c2ncccc2-c2ccc3ncc(N(C)C)n3c2)ccc1F [compound 551, 6-(2-(4-Fluoro-3-methylphenyl)pyridin-3-yl)-N,N-dimethylimidazo[1,2-a]pyridin-3-amine]	4.88 µM
Cc1cccc(-c2ncccc2-c2ccc3ncc(N(C)C)n3c2)c1 [compound 552, N,N-Dimethyl-6-(2-(m-tolyl)pyridin-3-yl)imidazo[1,2-a]pyridin-3-amine]	4.06 µM
CN(C)c1cnc2ccc(-c3cccnc3-c3cccc(C4CC4)c3)cn12 [compound 553, 6-(2-(3-Cyclopropylphenyl)pyridin-3-yl)-N,N-dimethylimidazo[1,2-a]pyridin-3-amine]	3.24 µM
CN(C)c1cnc2ccc(-c3cccnc3-c3cccc(C(F)(F)F)c3)cn12 [compound 554, N,N-Dimethyl-6-(2-(3-(trifluoromethyl)phenyl)pyridin-3-yl)imidazo[1,2-a]pyridin-3-amine]	4.68 µM
Cc1cc(-c2ncccc2-c2ccc3ncc(C(F)(F)F)n3c2)ccc1F [compound 555, 6-(2-(4-Fluoro-3-methylphenyl)pyridin-3-yl)-3-(trifluoromethyl)imidazo[1,2-a]pyridine]	0.156 µM
FC(F)(F)c1cnc2ccc(-c3cccnc3-c3cccc(C4CC4)c3)cn12 [compound 556, 6-(2-(3-Cyclopropylphenyl)pyridin-3-yl)-3-(trifluoromethyl)imidazo[1,2-a]pyridine]	0.363 µM
Cc1cc(-c2ncccc2-c2ccc3ncc(C#N)n3c2)ccc1F [compound 557, 6-(2-(4-Fluoro-3-methylphenyl)pyridin-3-yl)imidazo[1,2-a]pyridine-3-carbonitrile]	0.439 µM
Cc1cccc(-c2ncccc2-c2ccc3ncc(C#N)n3c2)c1 [compound 558, 6-(2-(m-Tolyl)pyridin-3-yl)imidazo[1,2-a]pyridine-3-carbonitrile]	0.188 µM
N#Cc1cnc2ccc(-c3cccnc3-c3cccc(C4CC4)c3)cn12 [compound 559, 6-(2-(3-Cyclopropylphenyl)pyridin-3-yl)imidazo[1,2-a]pyridine-3-carbonitrile]	0.162 µM
N#Cc1cnc2ccc(-c3cccnc3-c3cccc(C(F)(F)F)c3)cn12 [compound 560, 6-(2-(3-(Trifluoromethyl)phenyl)pyridin-3-yl)imidazo[1,2-a]pyridine-3-carbonitrile]	2.48 µM
Cc1cc(-c2ncccc2-c2ccc3ncc(N4CCCC4)n3c2)ccc1F [compound 561, 6-(2-(4-Fluoro-3-methylphenyl)pyridin-3-yl)-3-(pyrrolidin-1-yl)imidazo[1,2-a]pyridine]	11 µM
Cc1cccc(-c2ncccc2-c2ccc3ncc(N4CCCC4)n3c2)c1 [compound 562, 3-(Pyrrolidin-1-yl)-6-(2-(m-tolyl)pyridin-3-yl)imidazo[1,2-a]pyridine]	9.78 µM
c1cc(-c2ncccc2-c2ccc3ncc(N4CCCC4)n3c2)cc(C2CC2)c1 [compound 563, 6-(2-(3-Cyclopropylphenyl)pyridin-3-yl)-3-(pyrrolidin-1-yl)imidazo[1,2-a]pyridine]	5.2 µM
FC(F)(F)c1cccc(-c2ncccc2-c2ccc3ncc(N4CCCC4)n3c2)c1 [compound 564, 3-(Pyrrolidin-1-yl)-6-(2-(3-(trifluoromethyl)phenyl)pyridin-3-yl)imidazo[1,2-a]pyridine]	18.4 µM
Cc1cc(-c2ncccc2-c2ccc3ncc(CO)n3c2)ccc1F [compound 565, (6-(2-(4-Fluoro-3-methylphenyl)pyridin-3-yl)imidazo[1,2-a]pyridin-3-yl)methanol]	0.406 µM
Cc1cccc(-c2ncccc2-c2ccc3ncc(CO)n3c2)c1 [compound 566, (6-(2-(m-Tolyl)pyridin-3-yl)imidazo[1,2-a]pyridin-3-yl)methanol]	0.342 µM
OCc1cnc2ccc(-c3cccnc3-c3cccc(C4CC4)c3)cn12 [compound 567, (6-(2-(3-Cyclopropylphenyl)pyridin-3-yl)imidazo[1,2-a]pyridin-3-yl)methanol]	0.225 µM
OCc1cnc2ccc(-c3cccnc3-c3cccc(C(F)(F)F)c3)cn12 [compound 568, (6-(2-(3-(Trifluoromethyl)phenyl)pyridin-3-yl)imidazo[1,2-a]pyridin-3-yl)methanol]	0.674 µM
Cc1cc(-c2ncccc2-c2ccc3ncc(CN4CCOCC4)n3c2)ccc1F [compound 569, 4-((6-(2-(4-Fluoro-3-methylphenyl)pyridin-3-yl)imidazo[1,2-a]pyridin-3-yl)methyl)morpholine]	5.41 µM
Cc1cccc(-c2ncccc2-c2ccc3ncc(CN4CCOCC4)n3c2)c1 [compound 570, 4-((6-(2-(m-Tolyl)pyridin-3-yl)imidazo[1,2-a]pyridin-3-yl)methyl)morpholine]	5.9 µM
c1cc(-c2ncccc2-c2ccc3ncc(CN4CCOCC4)n3c2)cc(C2CC2)c1 [compound 571, 4-((6-(2-(3-Cyclopropylphenyl)pyridin-3-yl)imidazo[1,2-a]pyridin-3-yl)methyl)morpholine]	7.31 µM
COc1cc(NC(=O)c2cnc3ccc(-c4cccnc4-c4ccc(F)c(C)c4)cn23)cc(OC)c1OC [compound 573, 6-(2-(4-Fluoro-3-methylphenyl)pyridin-3-yl)-N-(3,4,5-trimethoxyphenyl)imidazo[1,2-a]pyridine-3-carboxamide]	1.21 µM
COc1cc(NC(=O)c2cnc3ccc(-c4cccnc4-c4cccc(C)c4)cn23)cc(OC)c1OC [compound 574, 6-(2-(m-Tolyl)pyridin-3-yl)-N-(3,4,5-trimethoxyphenyl)imidazo[1,2-a]pyridine-3-carboxamide]	0.853 µM
